Where two headings read alike, the source gives them in different places. No end group written: not given here.
Key:
[1] = test system: human red blood cells; assay: Hemolysis assay, minimum hemolytic concentration
[2] = test system: P. aeruginosa PA14 4.13 (phoQ); conditions: for MIC P. aeruginosa PA14 4.13: supplement CSV
[3] = test system: P. aeruginosa PA14 4.18 (pmrB); conditions: for MIC P. aeruginosa PA14 4.18: supplement CSV
[4] = test system: P. aeruginosa ZEM-1A; assay: microbe, parasite or virus in culture
In short: (§1)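 Minimal inhibitory concentrations come from broth microdilution in MH medium, with a top peptide concentration of 64 μg/mL halved serially.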

[5] = test system: P. aeruginosa ZEM9A; assay: microbe, parasite or virus in culture; conditions: for MIC P. aeruginosa ZEM9A: supplement CSV
In short: as §1

[6] = test system: P. aeruginosa PA14; assay: microbe, parasite or virus in culture; conditions: for MIC P. aeruginosa PA14: supplement CSV
In short: as §1

[7] = test system: P. aeruginosa PA14 2P4 (pmrB); assay: microbe, parasite or virus in culture; conditions: for MIC P. aeruginosa PA14 2P4: supplement CSV
In short: as §1

[8] = test system: K. pneumoniae OXA-48; assay: microbe, parasite or virus in culture; conditions: for MIC K. pneumoniae OXA-48: supplement CSV
In short: as §1

[9] = test system: E. cloacae; assay: microbe, parasite or virus in culture; conditions: for MIC E. cloacae: supplement CSV
In short: as §1

[10] = test system: P. aeruginosa PAO1; assay: microbe, parasite or virus in culture; conditions: for MIC P. aeruginosa PAO1: supplement CSV
In short: (§2)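 Read-out was visible growth after MTT addition, the MIC being the lowest inhibitory peptide concentration. Bacteria grown to log phase in LB were exposed in MH medium to peptide from 64 μg/mL in twofold dilutions for 15-18h at 37°C.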

[11] = test system: E. coli W3110; assay: microbe, parasite or virus in culture; conditions: for MIC E. coli W3110: supplement CSV
In short: as §2

[12] = test system: S. aureus COL (MRSA); assay: microbe, parasite or virus in culture; conditions: for MIC S. aureus COL (MRSA): supplement CSV
In short: as §2

[13] = test system: A. baumannii ATCC19606; assay: microbe, parasite or virus in culture; conditions: for MIC A. baumannii ATCC19606: supplement CSV
In short: as §2

[14] = test system: K. pneumoniae NCTC 418; assay: microbe, parasite or virus in culture; conditions: for MIC K. pneumoniae NCTC418: supplement CSV
In short: as §2

[15] = polymyxin B resistant strain, 12.5% MHB pH 7.4, 16–20 h at 37 °C
[16] = polymyxin B resistant strain, full MHB pH 7.4, 16–20 h at 37 °C

VDKPPYLPRPRPPRRIYNR-NH2 [L-Onc, reference compound]
Haemolysis on hRBC, MHC ([1]; 2.5% human red blood cells (final) in 10 mM phosphate, 150 mM NaCl, pH 7.4, 25 °C, 4 h, visual inspection): >1000 µg/mL
MHC human red blood cells ([1]; supplement CSV): >1000 µg/mL
MIC P. aeruginosa PA14 4.13 (phoQ), 12.5% MHB [2, 15]: 16 µg/mL
MIC P. aeruginosa PA14 4.13 (phoQ), full MHB [2, 16]: > 64 µg/mL
MIC P. aeruginosa PA14 4.13 ([2]; 12.5% MH pH 7.4): 16 µg/mL
MIC P. aeruginosa PA14 4.13 ([2]; full MH pH 7.4): >64 µg/mL
MIC P. aeruginosa PA14 4.18 (pmrB), 12.5% MHB [3, 15]: 32 µg/mL
MIC P. aeruginosa PA14 4.18 (pmrB), full MHB [3, 16]: > 64 µg/mL
MIC P. aeruginosa PA14 4.18 ([3]; 12.5% MH pH 7.4): 32 µg/mL
MIC P. aeruginosa PA14 4.18 ([3]; full MH pH 7.4): >64 µg/mL
MIC P. aeruginosa ZEM-1A, 12.5% MHB ([4]; clinical isolate, 12.5% MHB pH 7.4, 16–20 h at 37 °C, cells marked c: single measurement (in duplicates)): 8 to 16 µg/mL
MIC P. aeruginosa ZEM-1A ([4]; supplement CSV, 12.5% MH pH 7.4): 8 to 16 µg/mL
MIC P. aeruginosa ZEM9A, 12.5% MHB ([5]; clinical isolate, 12.5% MHB pH 7.4, 16–20 h at 37 °C): 32 µg/mL
MIC P. aeruginosa ZEM9A, full MHB ([5]; clinical isolate, full MHB pH 7.4, 16–20 h at 37 °C): > 64 µg/mL
MIC P. aeruginosa ZEM9A ([5]; 12.5% MH pH 7.4): 32 µg/mL
MIC P. aeruginosa ZEM9A ([5]; full MH pH 7.4): >64 µg/mL
MIC P. aeruginosa PA14, 12.5% MHB ([6]; 12.5% MHB pH 7.4, 16–20 h at 37 °C, two different duplicate MIC determinations): 32 µg/mL
MIC P. aeruginosa PA14, full MHB ([6]; full MHB pH 7.4, 16–20 h at 37 °C, two different duplicate MIC determinations): > 64 µg/mL
MIC P. aeruginosa PA14 ([6]; 12.5% MH pH 7.4): 32 µg/mL
MIC P. aeruginosa PA14 ([6]; full MH pH 7.4): >64 µg/mL
MIC P. aeruginosa PA14 2P4 (pmrB), 12.5% MHB [7, 15]: 16 µg/mL
MIC P. aeruginosa PA14 2P4 (pmrB), full MHB [7, 16]: > 64 µg/mL
MIC P. aeruginosa PA14 2P4 ([7]; 12.5% MH pH 7.4): 16 µg/mL
MIC P. aeruginosa PA14 2P4 ([7]; full MH pH 7.4): >64 µg/mL
MIC K. pneumoniae OXA-48, 12.5% MHB ([8]; carbapenem-resistant, 12.5% MHB pH 7.4, 16–20 h at 37 °C): 2 µg/mL
MIC K. pneumoniae OXA-48, full MHB ([8]; carbapenem-resistant, full MHB pH 7.4, 16–20 h at 37 °C): 32 µg/mL
MIC K. pneumoniae OXA-48 ([8]; 12.5% MH pH 7.4): 2 µg/mL
MIC K. pneumoniae OXA-48 ([8]; full MH pH 7.4): 32 µg/mL
MIC E. cloacae, 12.5% MHB ([9]; 12.5% MHB pH 7.4, 16–20 h at 37 °C): 1 µg/mL
MIC E. cloacae, full MHB ([9]; full MHB pH 7.4, 16–20 h at 37 °C): 32 µg/mL
MIC E. cloacae ([9]; 12.5% MH pH 7.4): 1 µg/mL
MIC E. cloacae ([9]; full MH pH 7.4): 32 µg/mL
MIC P. aeruginosa, 12.5% MHB ([10]; P. aeruginosa PAO1, 12.5% Müller–Hinton medium, 16–20 h at 37 °C): 16 µg/mL
MIC P. aeruginosa, Full MHB ([10]; P. aeruginosa PAO1, full Müller–Hinton medium, 16–20 h at 37 °C): > 64 µg/mL
MIC P. aeruginosa PAO1 ([10]; 12.5% MH pH 7.4): 16 µg/mL
MIC P. aeruginosa PAO1 ([10]; full MH pH 7.4): >64 µg/mL
MIC E. coli, 12.5% MHB ([11]; E. coli W3110, 12.5% Müller–Hinton medium, 16–20 h at 37 °C, broth microdilution): 2 µg/mL
MIC E. coli, Full MHB ([11]; E. coli W3110, full Müller–Hinton medium, 16–20 h at 37 °C, broth microdilution): 4 µg/mL
MIC E. coli W3110 ([11]; 12.5% MH pH 7.4): 2 µg/mL
MIC E. coli W3110 ([11]; full MH pH 7.4): 4 µg/mL
MIC S. aureus, 12.5% MHB ([12]; S. aureus COL (MRSA), 12.5% Müller–Hinton medium, 16–20 h at 37 °C): 32 µg/mL
MIC S. aureus, Full MHB ([12]; S. aureus COL (MRSA), full Müller–Hinton medium, 16–20 h at 37 °C): > 64 µg/mL
MIC S. aureus COL (MRSA) ([12]; 12.5% MH pH 7.4): 32 µg/mL
MIC S. aureus COL (MRSA) ([12]; full MH pH 7.4): >64 µg/mL
MIC A. baumannii, 12.5% MHB ([13]; A. baumannii ATCC19606, 12.5% Müller–Hinton medium, 16–20 h at 37 °C): 4 µg/mL
MIC A. baumannii, Full MHB ([13]; A. baumannii ATCC19606, full Müller–Hinton medium, 16–20 h at 37 °C): 32 µg/mL
MIC A. baumannii ATCC19606 ([13]; 12.5% MH pH 7.4): 4 µg/mL
MIC A. baumannii ATCC19606 ([13]; full MH pH 7.4): 32 µg/mL
MIC K. pneumoniae, 12.5% MHB ([14]; K. pneumoniae NCTC 418, 12.5% Müller–Hinton medium, 16–20 h at 37 °C): 4 / 4 μg/mL
MIC K. pneumoniae, Full MHB ([14]; K. pneumoniae NCTC 418, full Müller–Hinton medium, 16–20 h at 37 °C): 4 / 4 μg/mL
MIC K. pneumoniae NCTC418 ([14]; 12.5% MH pH 7.4): 4 µg/mL
MIC K. pneumoniae NCTC418 ([14]; full MH pH 7.4): 4 µg/mL

— PMC11571207, “Stereorandomized Oncocins with Preserved Ribosome Binding and Antibacterial Activity” (Journal of Medicinal Chemistry, 2024)
